# Laboratory results taken from a melting point compilation (Tetko et al.).
row,Compound,melting point [°C]
1,CN1CCN(CCc2ccc(N)cc2)CC1,64 to 66
2,O=C(O)c1ccc(Cl)c(S(=O)(=O)Nc2ccccc2N2CCOCC2)c1,178 to 180
3,Cn1ccnc1C(=O)c1ccc(Cl)c([N+](=O)[O-])c1,145 to 147
4,Nc1ncc(CCC(=O)O)s1,195 to 197
5,Cn1cnnc1Sc1ccc(Br)cc1N,144 to 146
6,N#Cc1c(F)cccc1Oc1ccc(C(=O)O)cc1,186 to 188
7,CCOC(=O)c1sc(N)c(C(N)=O)c1C,197 to 199
8,Nc1nc(Cl)ccc1Cl,94 to 96
9,Clc1ccc(-c2nc3ccccc3[nH]2)cn1,198 to 200
10,Sc1nc2cc(Cl)cnc2[nH]1,352 to 354
11,Cc1ccc(NCCC(N)=S)cc1,94 to 96
12,CCN(CC)S(=O)(=O)c1ccc(Oc2cccc(C)c2)c(N)c1,122 to 124
13,Cc1oc(-n2cccc2)c(C#N)c1C(=O)O,208 to 210
14,N#Cc1ccc(COc2ccccc2F)cc1,68 to 70
15,O=C(O)C1=C(Nc2ccccc2)OCC1=O,140 to 150
16,COC(=O)c1c[nH]cc1-c1ccc([N+](=O)[O-])cc1,244 to 246
17,COc1cccc2c1CCCC(=O)N2,159 to 161
18,NCc1cc2c(cc1OC(F)F)OCO2,39 to 41
19,Cc1nn(C)c(Cl)c1/C=C/C(=O)O,156 to 158
20,O=C(NC1CC1)C(Cl)c1ccc(F)cc1 (configuration not stated),135 to 137
21,O=C(O)c1cc(OCC(F)(F)F)cc(OCC(F)(F)F)c1,141 to 143
22,Cc1oc2nc(CCl)nc(N)c2c1C,179 to 181
23,O=C1CCCN1c1ccccc1[N+](=O)[O-],77 to 79
24,O=C1NC2(CCCC2)C(=O)N1Cc1ccc(Cl)nc1,169 to 171

row,Compound,melting point [°C]
1,CC(=O)c1cccc([N+](=O)[O-])c1C,49 to 51
2,O=C(Cc1ccc(Br)cc1)Nc1ccc(C(=O)O)cc1,282 to 284
3,CC(=O)c1c(C#N)c2n(c1C)CCC2,132 to 134
4,Cc1ncc(Br)n1C,92 to 94
5,CC(C)Oc1ccc(S(=O)(=O)N2CCCCC2)cc1NC(=O)CCl,270 to 272
6,Cc1ccc(CN(C)C)cc1N,66 to 68
7,CC(NC(=O)CCl)C(=O)O (configuration not stated),125 to 127
8,Cc1ccc(C(=O)O)n1C,149 to 151
9,O=C(O)c1ccc(OC2CCC2)cc1,191 to 193
10,O=C(CCl)NCCc1c[nH]c2ccccc12,82 to 84
11,O=C(O)C=Cc1ccccc1OCC1CCCCC1,99 to 101
12,COc1cccc(C(=O)NN)c1OC,77 to 79
13,CCOc1ccc([N+](=O)[O-])cc1CCl,68 to 70
14,O=C(O)c1ccc2c(c1)[nH]c(=O)n2C1CCCC1,315 to 317
15,CC(Cl)C(=O)N1c2ccccc2Sc2ccccc21 (configuration not stated),118 to 120
16,CCCc1c(C(=O)O)[nH]c(C)c1C(=O)OC,215 to 217
17,COc1cccc(NC(=S)NN)c1,168 to 170
18,COc1ccccc1NC(=O)CC#N,87 to 90
19,CC(C)(C)S(=O)(=O)c1ccc(Br)cn1,116 to 118
20,O=C(O)C1CCC(=O)N(Cc2ccccc2)C1c1ccccc1 (configuration not stated),164 to 166
21,COc1cccc(/C=C/c2cc(C(=O)O)c3cc(Br)ccc3n2)c1,285 to 287
22,CCN(Cc1ccccc1)c1ccc(C=O)cc1,38 to 42
23,NCCNS(=O)(=O)c1cc(Br)ccc1Br,170 to 172
24,O=C(O)C=Cc1ccc(Oc2cccnc2)c(F)c1,202 to 204

row,Compound,melting point [°C]
1,COc1ccccc1C(=O)NC(=O)CCl,118 to 120
2,C=CCNS(=O)(=O)c1ccc(C(=O)O)cc1,215 to 217
3,Nc1nnc(C2CC2)o1,170 to 172
4,NS(=O)(=O)c1cccc(-c2nnco2)c1,184 to 186
5,N#Cc1cccc([N+](=O)[O-])c1O,130 to 132
6,COc1cc(C(=O)O)ccc1OCCC(C)C,92 to 94
7,O=S(=O)(Cl)c1ccc(C2CCCCC2)cc1,49 to 51
8,c1ccc(NC2CCN(c3ccncc3)CC2)cc1,145 to 147
9,N#Cc1ccc2ncccc2c1,135 to 137
10,Clc1nc(CSc2ccccc2)nc2sc3c(c12)CCCC3,55 to 57
11,CC(N)c1ccc2c(c1)NC(=O)CO2 (configuration not stated),130 to 132
12,CC1CCN(CC(O)CN)CC1 (configuration not stated),63 to 65
13,O=C(O)c1ccc2c(=O)n(-c3ccccc3F)c(=O)[nH]c2c1,343 to 345
14,CC(C)(C)OC(=O)NC(CCS(C)(=O)=O)C(=O)O (configuration not stated),99 to 101
15,CC(C)N1C(=O)CC(C(=O)O)C1c1ccc(Cl)c(F)c1 (configuration not stated),163 to 165
16,CC(C)N(C)C(=O)C1CCN(C(=O)CCl)CC1,110 to 112
17,Cc1ccc(NC2=NC(C)(C)CS2)cc1,164 to 166
18,COC(=O)CN(C)c1ccc(Br)cn1,92 to 94
19,O=C(O)CSCCc1ccccc1,56 to 58
20,Cc1nn(C(C)(C)C)c(C)c1N,54 to 56
21,O=c1[nH]c2ccccc2c(=O)n1CCCO,174 to 176
22,Nc1ncc(C(O)(C(F)(F)F)C(F)(F)F)s1,184 to 186
23,CCN1CCN(c2ccc(C#N)cn2)CC1,69 to 71
24,N#CCCn1cc(C(=O)CCl)c2ccccc21,138 to 140

row,Compound,melting point [°C]
1,CC(C)C(=O)Nc1ccc(C(=O)O)cc1,240 to 242
2,O=C(O)COc1cc(C(F)(F)F)cc(C(F)(F)F)c1,102 to 104
3,O=C(O)CNC(=O)c1cc2ccccc2[nH]1,231 to 233
4,COc1ccccc1N1C(=O)C=CC1=O,90 to 91
5,NC(=O)c1cccc(Oc2ccc(N)cn2)c1,195 to 197
6,CCN(CC)S(=O)(=O)c1ccc(OC)c(C(=O)O)c1,119 to 121
7,N#CCc1ccc(OCCBr)cc1,52 to 54
8,O=C(O)c1ccccc1Nc1ccc(OC(F)F)cc1,153 to 155
9,O=C(O)C1=NN(C2CCS(=O)(=O)C2)C(=O)CC1 (configuration not stated),138 to 140
10,O=C(OCc1ccccc1)N1CCc2n[nH]c(=O)cc2C1,175 to 177
11,COC(=O)c1oc(Br)cc1C,62 to 64
12,Nc1scnc1-c1ccccc1,130 to 132
13,CS(=O)(=O)Nc1ccc(N)cc1Cl,181 to 183
14,Cc1c[nH]c(=O)n1-c1ccccc1Cl,199 to 201
15,NS(=O)(=O)c1ccc(S(=O)(=O)Cl)c(F)c1,111 to 113
16,NC(=O)c1cc(Cl)ccn1,157 to 159
17,CC(=O)N1CCc2cc(NC(=O)CCl)ccc21,233 to 235
18,O=C(O)C1CCN(C(=O)c2ccco2)CC1,127 to 129
19,CCc1ccc(-c2csc(NC(=O)C(C)Cl)n2)cc1 (configuration not stated),108 to 110
20,O=C1CC(C(=O)O)C(C(=O)O)C1 (configuration not stated),186 to 188
21,CC(=O)N1CCN(CC#N)CC1,107 to 109
22,Cc1csc(NCC(=O)O)n1,224 to 226
23,NCC(=O)N1CCN(c2ccc(Cl)cc2)CC1,87 to 89
24,COc1ccc(CCC(=O)O)c(OC)c1OC,73 to 75

row,Compound,melting point [°C]
1,Nc1cc(-n2nnnc2C2CC2)ccc1F,112 to 114
2,CN(C)c1ccc(C#N)c(F)c1,56 to 58
3,CN(C)c1ccc(N2C(=O)CSC2=S)cc1,138 to 140
4,Cc1cc([N+](=O)[O-])cc(S(=O)(=O)Cl)c1C,66 to 68
5,CC(=O)c1ccc(OCc2ccccc2C)cc1,98 to 100
6,Clc1ccc2c(c1)CCCN2,37 to 39
7,O=C1C(=O)N(CN2CCN(CCO)CC2)c2ccccc21,157 to 159
8,O=C(O)c1ccc(OCC(=O)C2CC2)cc1,157 to 159
9,Cc1cc(C(=O)O)c(Br)s1,181 to 183
10,CCOC(=O)Cc1c(C)nc(O)nc1C,135 to 137
11,Cc1ccc(NS(C)(=O)=O)c(C(=O)O)c1,195 to 197
12,NC(=O)N1CCC(N)CC1,64 to 66
13,O=C(CC(F)(F)F)c1ccc(F)cc1F,46 to 48
14,CCOc1ccc(C(=O)N2CCCCC2)cc1N,143 to 145
15,N#CCC(=O)Nc1ncccn1,159 to 161
16,CN1CCC(CC(=O)O)CC1,150 to 152
17,CC(CC(=O)O)c1ccncc1 (configuration not stated),171 to 173
18,O=C(Cc1ccc(Cl)cc1)c1ccccn1,49 to 51
19,Cc1nn(-c2ccc(F)cc2F)c(C)c1C(=O)O,229 to 231
20,NS(=O)(=O)Cc1cccc2cccnc12,154 to 156
21,Cc1nc(NC(=N)N)nc2ccccc12,339 to 341
22,Cc1ccc2cccnc2c1S(N)(=O)=O,170 to 172
23,Cc1ccc(C23CC4CC(CC(C(=O)O)(C4)C2)C3)cc1,174 to 176
24,Nc1cccc(C(=O)N2CCC(CO)CC2)c1,155 to 157

row,Compound,melting point [°C]
1,O=C(O)C1CCSC1 (configuration not stated),60 to 62
2,O=C(Nc1ccc(Br)cn1)C1CCNCC1,144 to 146
3,Nc1cccc(Cl)c1Sc1ccccn1,87 to 89
4,Cc1nnc(CO)o1,129 to 131
5,CCn1c(N)nc2ccccc21,152 to 154
6,Cc1ccc(-c2nnc(N)s2)c(C)c1,180 to 182
7,Cc1ccc(S(=O)(=O)OCC2CCOCO2)cc1 (configuration not stated),63 to 65
8,O=C(O)Cc1c[nH]c2ccc(Cl)cc12,157 to 159
9,O=C(O)c1cnoc1-c1ccccc1,149 to 151
10,NC(=O)Nc1ccccc1Oc1ccccc1,182 to 184
11,O=C(NC(Cc1ccccc1)C(=O)O)c1cccnc1 (configuration not stated),206 to 208
12,CCOC(=O)c1cc(C)nc2c(C(N)=O)cnn12,198 to 200
13,CS(=O)(=O)CC(=O)c1ccccc1F,77 to 79
14,O=C(CC(=O)Nc1ccccc1F)Nc1ccccc1F,158 to 160
15,O=C(O)c1cccnc1C1CC1,196 to 198
16,CCNS(=O)(=O)c1cc(F)ccc1F,68 to 70
17,Nc1nc(N2CCOCC2)ns1,187 to 189
18,CC(C(=O)O)n1nnc(-c2ccccc2)n1 (configuration not stated),143 to 145
19,Nc1nnc(SCc2cccs2)s1,141 to 143
20,Nc1ccc(Br)c2ccccc12,102 to 104
21,COC(=O)c1cccc(Oc2ccnc(Cl)n2)c1,117 to 119
22,O=C(O)c1ccc2c(c1)ncn2Cc1ccccc1,102 to 104
